The values that follow come from patent US7524844B2, “Dipeptidyl peptidase IV inhibitors, process for their preparation and compositions containing them” (Glenmark Pharmaceuticals S.A., priority 2004, dated 2009).

Where a name gives a salt, the structure may show the parent alone.

One experiment deals with T1, human recombinant Dipeptidyl peptidase IV enzyme (DPP-IV) (Homo sapiens, UniProt P27487).
T1 construct: purchased R&D Systems Inc. of Minneapolis, Minn
T1 sequence (P27487 whole entry): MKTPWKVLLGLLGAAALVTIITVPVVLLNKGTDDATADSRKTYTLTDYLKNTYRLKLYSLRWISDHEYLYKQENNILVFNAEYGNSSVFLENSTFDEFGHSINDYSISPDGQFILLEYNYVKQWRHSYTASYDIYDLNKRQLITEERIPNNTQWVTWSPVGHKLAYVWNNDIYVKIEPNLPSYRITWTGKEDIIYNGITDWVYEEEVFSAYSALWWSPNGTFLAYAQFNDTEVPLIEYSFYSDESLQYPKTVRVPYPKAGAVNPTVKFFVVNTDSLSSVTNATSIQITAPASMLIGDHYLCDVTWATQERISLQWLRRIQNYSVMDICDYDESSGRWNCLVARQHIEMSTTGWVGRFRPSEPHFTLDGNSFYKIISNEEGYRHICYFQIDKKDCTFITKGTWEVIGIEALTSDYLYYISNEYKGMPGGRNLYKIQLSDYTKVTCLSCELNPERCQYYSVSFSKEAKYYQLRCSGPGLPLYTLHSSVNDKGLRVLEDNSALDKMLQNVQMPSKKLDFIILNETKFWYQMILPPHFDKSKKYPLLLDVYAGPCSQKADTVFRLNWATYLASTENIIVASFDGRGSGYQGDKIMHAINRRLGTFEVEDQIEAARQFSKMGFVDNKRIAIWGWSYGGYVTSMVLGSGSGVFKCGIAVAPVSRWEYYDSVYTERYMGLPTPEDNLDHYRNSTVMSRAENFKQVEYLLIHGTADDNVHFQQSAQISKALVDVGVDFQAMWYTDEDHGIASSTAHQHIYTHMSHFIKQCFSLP
Put plainly: in-vitro DPP-IV assay (cleavage of AMC from Gly-Pro-AMC). The experiment is classed as biochemical. As to conditions: at 300 nM; printed in the IC50 (nM) column; read-out: DPP-IV inhibition using human recombinant DPP-IV enzyme, percent inhibition. The procedure: DPP-IV activity was determined by the cleavage rate of 7-amino-4-methyl coumarin (AMC) from the synthetic substrate Glycyl-Prolyl-AMC. In brief, the assay was conducted by adding 10 ng of human recombinant Dipeptidyl peptidase IV enzyme (DPP-IV, available commercially from R&D Systems Inc. of Minneapolis, Minn.) in 50 μl of the assay buffer (25 mM Tris, pH 7.4, 140 mM NaCl, 10 mM KCl, 1% BSA) to 96 well black flat bottom microtiter plates. The reaction was initiated by adding 50 μl of 100 μM substrate Gly-Pro-AMC. The incubation was carried out in the kinetic mode at 30° C. for 30 minutes. Fluorescence was measured using Fluorostar with an excitation filter of 380 nm and emission filter of 460 nm. Test compounds and solvent controls were added as 1 μl additions. A standard curve of free amino methyl coumarin (AMC) was generated using 0-100 μM AMC in the assay buffer. The curve generated, which was linear was used for the interpolation of catalytic activity.
Test compounds dissolved in DMSO at 5-6 concentrations were tested in duplicate along with the solvent control and blank samples. Percent inhibition was calculated at each concentration with respect to the solvent control sample (no test compound added). […]
In the case of `O=C(CN[C@H]1CCC(Cn2cncn2)C1)N1CC[C@H](F)C1` (stereo in doubt) [Example-55, 1-[(3S)-3-Fluoropyrrolidin-1-yl]-2-[(1S,3S)-3-(1H-1,2,4-Triazol-1-ylmethyl)cyclo-pentylamino]-1-ethanone], the inhibition at 0.3 µM turned out to be 0%.

The same experiment, now with this note: human recombinant DPP-IV, Gly-Pro-AMC substrate, 30° C., 30 minutes; read-out: DPP-IV inhibition using human recombinant DPP-IV enzyme, IC50.
`N#C[C@@H]1CCCN1C(=O)CN[C@@H]1CC[C@H](Cn2ccnc2)C1` [Example-29, (2S)-1-{2-[(3S,1R)-3-(1H-1-Imidazolylmethyl)cyclopentylamino]acetyl}pyrrolidine-2-carbonitrile]: the IC50 amounted to 11.2 nM. `N#C[C@@H]1C[C@H](F)CN1C(=O)CN[C@@H]1CC[C@H](Cc2ccccc2)C1` [Example-15, (2S,4S)-1-{2-[(1R,3R)-3-Benzylcyclopentylamino]acetyl}-4-fluoropyrrolidin-2-yl cyanide]: the IC50 is 6.06 nM. For `N#C[C@@H]1CCCN1C(=O)CN[C@@H]1CC[C@H](CN2CCCS2(=O)=O)C1` [Example-18, (2S)-1-{2-[(3S,1R)-3-(1,1-Dioxo-2-isothiazolidinylmethyl)cyclopentylamino]acetyl}-pyrrolidine-2-carbonitrile], the IC50 was 29.4 nM.

Turning to `N#C[C@@H]1CCCN1C(=O)CN[C@H]1CC[C@@H](CN2CCN(c3ccccc3)CC2)C1` [Example-23, (2S)-1-{2-[(1S,3R)-3-(4-Phenylpiperazinomethyl)cyclopentylamino]acetyl}-pyrrolidine-2-carbonitrile], the IC50 was determined as 32 nM. For `N#C[C@@H]1CCCN1C(=O)CNC1CCC(Cn2cncn2)C1` (mixture of isomers) [Example-36, (2S)-1-{2-[(3SR,1RS)-3-(1H-1,2,4-Triazol-1-ylmethyl)cyclopentylamino]acetyl}-pyrrolidine-2-carbonitrile], the IC50 worked out at 6 nM. For `N#Cc1ncn(C[C@H]2CC[C@@H](NCC(=O)N3CCC[C@H]3C#N)C2)c1C#N` [Example-34, 1-((1S,3R)-3-{2-[(2S)-2-Cyanopyrrolidin-1-yl]-2-oxoethylamino}cyclopentylmethyl)-1H-4,5-imidazoledicarbonitrile], the IC50 came to 9.36 nM. As for `N#C[C@@H]1CCCN1C(=O)CNC1CCC(CN2CCN(Cc3ccccc3)CC2)C1` (mixture of isomers) [Example-22, (2S)-1-{2-1[(3SR,1RS)-3-(4-Benzylpiperazinomethyl)cyclopentylamino]acetyl}-pyrrolidin-2-carbonitrile], the concentration for half-maximal inhibition (IC50) was found to be 25.4 nM. Same read-out and setting: next, `N#C[C@@H]1CCCN1C(=O)CN[C@H]1CC[C@@H](Cn2ncc3ccccc32)C1` [Example-67, (2S)-1-{2-[(1S,3R)-3-(1H-Indazol-1-ylmethyl)cyclopentylamino]acetyl}pyrrolidin-2-carbonitrile]: 22.3 nM.

Take `N#C[C@@H]1CCCN1C(=O)CN[C@@H]1C=C[C@H](Cn2cncn2)C1` [Example-35]: the IC50 was determined as 68.3 nM.

On to `N#C[C@@H]1CCCN1C(=O)CN[C@@H]1CC[C@H](Cn2cncn2)C1` [Example-39, (2S)-1-{2-[(3S,1R)-3-(1H-1,2,4-Triazol-1-ylmethyl)cyclopentylamino]acetyl}-pyrrolidine-2-carbonitrile maleate], for which the half-inhibitory concentration (IC50) is 5.05 nM.

As to `N#C[C@@H]1CCCN1C(=O)CN[C@@H]1CC[C@H](Cn2nc3ccccc3n2)C1` [Example-71, (2S)-1-{2-[(3S,1R)-3-(2H-benzo[d][1,2,3]triazol-2-ylmethyl)cyclopentylamino]-acetyl}pyrrolidine-2-carbonitrile], the 50% inhibitory concentration (IC50) is 9.25 nM. With `N#CC1CCC(NCC(=O)N2CCC[C@H]2C#N)C1` (mixture of isomers) [Example 2, (2S)-1-{2-[(3SR,1RS)-3-Cyanocyclopentylamino]acetyl}-2-pyrrolidinecarbonitrile], the IC50 was determined as 286 nM. On to `N#Cc1cn(C[C@H]2CC[C@@H](NCC(=O)N3C[C@@H](F)C[C@H]3C#N)C2)c2ccccc12` [Example-64, 1-((1S,3R)-3-{2-[(2S,4S)-2-Cyano-4-fluoropyrrolidin-1-yl]-2-oxoethylamino}cyclo-pentylmethyl)-1H-3-indolecarbonitrile], for which the half-inhibitory concentration (IC50) worked out at 5.81 nM. For the compound `N#C[C@@H]1C[C@H](F)CN1C(=O)CNC1CCC(Cn2cncn2)C1` (mixture of isomers) [Example-41, (2S,4S)-1-{2-[(3SR,1RS)-3-(1H-1,2,4-Triazol-1-ylmethyl)cyclopentylamino]acetyl}-4-fluoropyrrolidine-2-carbonitrile], the IC50 was determined as 4.44 nM. The same measure, in the same setting: under `N#C[C@@H]1CCCN1C(=O)CN[C@H]1CC[C@@H](Cn2nccn2)C1` [Example-56, (2S)-1-{2-[(1S,3R)-3-(2H-1,2,3-Triazol-2-ylmethyl)cyclopentylamino]acetyl}-pyrrolidine-2-carbonitrile] stands 78.9 nM; under `CCCCc1nc(Cl)c(C#N)n1CC1CCC(NCC(=O)N2CCC[C@H]2C#N)C1` (mixture of isomers) [Example-32, 2-n-Butyl-4-chloro-1-((1SR,3RS)-3-{2-[(2S)-2-cyanopyrrolidin-1-yl]-2-oxoethyl-amino}cyclopentylmethyl)-1H-5-imidazolecarbonitrile], 3.46 nM. Consider `N#C[C@@H]1CCCN1C(=O)CNC1CCC(C(=O)Nc2ccccc2-c2ccccc2)C1` (mixture of isomers) [Example 75, 1-((1SR,3RS)-3-{2-[(2S)-2-Cyanopyrrolidin-1-yl)-2-oxoethylamino}cyclopentyl-carboxamido)-2-phenylbenzene], for which the 50% inhibitory concentration (IC50) was 252 nM.

In the case of `N#C[C@@H]1CCCN1C(=O)CN[C@@H]1CC[C@H](Cn2cnc3ccccc32)C1` [Example-69, (2S)-1-{2-[(3S,1R)-3-(1H-Benzo[d]imidazol-1-ylmethyl)cyclopenylamino]acetyl}-pyrrolidine-2-carbonitrile], the half-inhibitory concentration (IC50) amounted to 4.45 nM. Turning to `N#C[C@@H]1CCCN1C(=O)CNC1CCC(Cn2cnc([N+](=O)[O-])c2)C1` (mixture of isomers) [Example-30, (2S)-1-{2-[(3SR,1RS)-3-(1H-4-Nitro-1-imidazolylmethyl)cyclopentylamino]acetyl}-pyrrolidine-2-carbonitrile], the IC50 was 6.88 nM. Regarding `N#CC1CCN(C[C@H]2CC[C@@H](NCC(=O)N3CCC[C@H]3C#N)C2)CC1` (mixture of isomers) [Example-21, (2S)-1-{2-[(3SR,1RS)-3-(4-Cyanopiperidinylmethyl)cyclopentylamino]acetyl}-pyrrolidine-2-carbonitrile], the IC50 is 33 nM. Consider `N#C[C@@H]1C[C@H](F)CN1C(=O)CN[C@@H]1CC[C@H](Cn2cncn2)C1` [Example-43, (2S,4S)-1-{2-[(3S,1R)-3-(1H-1,2,4-Triazol-1-ylmethyl)cyclopentylamino]acetyl}-4-fluoropyrrolidine-2-carbonitrile hydrochloride], for which the 50% inhibitory concentration (IC50) was 6.25 nM. For the compound `N#C[C@@H]1CCCN1C(=O)CN[C@@H]1CC[C@H](CNC(=O)Nc2ccc(F)cc2F)C1` [Example-14, N1-(2,4-Difluorophenyl)-N3-((1S,3R)-3-{2-[(2S)-2-cyanopyrrolidin-1-yl]-2-oxoethyl-amino}cyclopentylmethyl)urea], the half-maximal inhibitory concentration (IC50) is 26.3 nM.

With `N#CCC1CCC(NCC(=O)N2CCC[C@H]2C#N)C1` (mixture of isomers) [Example-3, (2S)-1-{2-[(3SR,1RS)-3-Cyanomethylcyclopentylamino]acetyl}-2-pyrrolidine carbonitrile], the half-maximal inhibitory concentration (IC50) came to 26.8 nM. Regarding `N#C[C@@H]1C[C@H](F)CN1C(=O)CN[C@H]1CC[C@@H](Cn2ccnn2)C1` [Example-57], the half-inhibitory concentration (IC50) was 5.88 nM.

Broadly, the inhibition is the change of the read-out against control, counted positive when it falls. In general, IC50 refers to the concentration that inhibits the measured activity by half.
